Reference: PubChem BioAssay AID248 (DTP/NCI, 2004)
Where “and” joins values, the source holds several entries; their conditions need not be identical. Identical values can stand only once. Inconclusive results and toxic doses are left out. Cut-off read from the data, not from the text of the source: active = T/C of 150% or more; inactive = T/C below 125%. Square brackets hold non-standard residues; d marks the D form. Peptide text beside a SMILES is read from it. * marks the point of attachment. Cbz = O=C(OCc1ccccc1)*; Sar = CNCC(=O)O

System: L1210 leukemia ip in BDF1 mice, survival T/C
Test: NCI In Vivo Anticancer Drug Screen. Data for tumor model L1210 Leukemia (intraperitoneal) in B6D2F1 (BDF1) mice
Settings: endpoint: mean survival time, higher = longer survival
In short: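 Antitumor effect is assessed in tumor-bearing animals. Survival in the compound arm is compared with a vehicle-dosed control arm and expressed as their quotient.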

[1] = dose: 100.0 mg/kg/injection, schedule: Q01DX001 (ip), vehicle: carboxymethylcellulose (CMC)
[2] = dose: 100.0 mg/kg/injection, schedule: Q01DX001 (ip), vehicle: saline
[3] = dose: 200.0 mg/kg/injection, schedule: Q01DX001 (ip), vehicle: carboxymethylcellulose (CMC)
[4] = dose: 200.0 mg/kg/injection, schedule: Q01DX001 (ip), vehicle: saline
[5] = dose: 400.0 mg/kg/injection, schedule: Q01DX001 (ip), vehicle: carboxymethylcellulose (CMC)
[6] = dose: 400.0 mg/kg/injection, schedule: Q01DX001 (ip), vehicle: saline
[7] = dose: 50.0 mg/kg/injection, schedule: Q01DX009 (ip), vehicle: saline with Tween-80
[8] = dose: 100.0 mg/kg/injection, schedule: Q01DX009 (ip), vehicle: saline with Tween-80
[9] = dose: 200.0 mg/kg/injection, schedule: Q01DX009 (ip), vehicle: saline with Tween-80
[10] = dose: 100.0 mg/kg/injection, schedule: Q04DX003 (ip), vehicle: Klucel (hydroxypropylcellulose) (HPC)
[11] = dose: 200.0 mg/kg/injection, schedule: Q04DX003 (ip), vehicle: Klucel (hydroxypropylcellulose) (HPC)
[12] = dose: 400.0 mg/kg/injection, schedule: Q04DX003 (ip), vehicle: Klucel (hydroxypropylcellulose) (HPC)
[13] = dose: 50.0 mg/kg/injection, schedule: Q01DX001 (ip), vehicle: carboxymethylcellulose (CMC)
[14] = dose: 100.0 mg/kg/injection, schedule: Q04DX003 (ip), vehicle: saline
[15] = dose: 200.0 mg/kg/injection, schedule: Q04DX003 (ip), vehicle: saline
[16] = dose: 100.0 mg/kg/injection, schedule: Q01DX009 (ip), vehicle: Klucel (hydroxypropylcellulose) (HPC)
[17] = dose: 200.0 mg/kg/injection, schedule: Q01DX009 (ip), vehicle: Klucel (hydroxypropylcellulose) (HPC)
[18] = dose: 50.0 mg/kg/injection, schedule: Q01DX009 (ip), vehicle: Klucel (hydroxypropylcellulose) (HPC)

Measured: T/C

Cc1cc(C)c(C(=O)CBr)c(C)c1
inactive: [1] 112 % of control | [2] 101 % of control | [3] 106 % of control | [4] 101 % of control | [5] 101 % of control | [6] 110 % of control

O=C(N/N=C/c1cccc([N+](=O)[O-])c1)c1ccccc1Cl
inactive: [7] 98 % of control | [8] 107 % of control | [9] 102 % of control

CN(CC(N)=O)C(=O)CNC(=O)OCc1ccccc1 (Cbz-Gly-[Sar]-NH2)
inactive: [10] 96 % of control | [11] 99 % of control | [12] 97 % of control

C(=C/c1nc2ccccc2o1)/c1ccc2c(c1)OCO2
inactive: dose: 100.0 mg/kg/injection, schedule: Q04DX002 (ip), vehicle: Klucel (hydroxypropylcellulose) (HPC) 97 % of control | dose: 200.0 mg/kg/injection, schedule: Q04DX002 (ip), vehicle: Klucel (hydroxypropylcellulose) (HPC) 97 % of control | dose: 400.0 mg/kg/injection, schedule: Q04DX002 (ip), vehicle: Klucel (hydroxypropylcellulose) (HPC) 97 % of control

CC(=O)OC1CCC2(C)C(C1)CC(OC(C)=O)C1C2CCC2(C)C(C(C)CCC(=O)O)CCC12 (centres undefined)
inactive: dose: 100.0 mg/kg/injection, schedule: Q01DX001 (ip), vehicle: saline with Tween-80 92 % of control | dose: 200.0 mg/kg/injection, schedule: Q01DX001 (ip), vehicle: saline with Tween-80 97 % of control | dose: 400.0 mg/kg/injection, schedule: Q01DX001 (ip), vehicle: saline with Tween-80 92 % of control

COc1cccc2cc[nH]c12
inactive: [13] 105 % of control | [1] 100 % of control | [3] 112 % of control | [5] 100 % of control

Nc1cc(Cl)cc2c1nc(NCCO)c1ccccc12
inactive: [10] 97 % of control | [11] 90 % of control | [12] 98 % of control

Cc1cc(Cl)nc2ccc(Cc3ccc(Br)cc3)cc12
inactive: [2] 95 % of control | [4] 96 % of control | [6] 91 % of control

CCN(CC)CCNc1ccc(N=Nc2ccc(SC)cc2)c2ccccc12
inactive: dose: 6.25 mg/kg/injection, schedule: Q01DX015 (ip), vehicle: carboxymethylcellulose (CMC) 91 % of control | dose: 12.5 mg/kg/injection, schedule: Q01DX015 (ip), vehicle: carboxymethylcellulose (CMC) 93 % of control | dose: 25.0 mg/kg/injection, schedule: Q01DX015 (ip), vehicle: carboxymethylcellulose (CMC) 86 % of control | [7] 94 % of control | dose: 50.0 mg/kg/injection, schedule: Q01DX015 (ip), vehicle: carboxymethylcellulose (CMC) 87 % of control | dose: 50.0 mg/kg/injection, schedule: Q04DX003 (ip), vehicle: saline 96 % of control | [8] 103 % of control | [14] 89 % of control | [15] 88 % of control

COC(=O)c1cc(NC(=O)Nc2cccc(C(F)(F)F)c2)cc(C(=O)OC)c1
inactive: [8] 100 % of control | [9] 92 % of control | dose: 400.0 mg/kg/injection, schedule: Q01DX009 (ip), vehicle: saline with Tween-80 96 % of control

Cc1ccc(Cl)cc1NC(=S)N(C)C
inactive: dose: 100.0 mg/kg/injection, schedule: Q04DX002 (ip), vehicle: saline with Tween-80 98 % of control | dose: 200.0 mg/kg/injection, schedule: Q04DX002 (ip), vehicle: saline with Tween-80 98 % of control

COc1cc(OC)c(NC(=O)NC(C)C)cc1Cl
inactive: dose: 100.0 mg/kg/injection, schedule: Q04DX003 (ip), vehicle: saline with Tween-80 98 % of control | dose: 200.0 mg/kg/injection, schedule: Q04DX003 (ip), vehicle: saline with Tween-80 89 % of control | dose: 400.0 mg/kg/injection, schedule: Q04DX003 (ip), vehicle: saline with Tween-80 88 % of control

CC(CC(=O)C(F)(F)F)=NCC(C)N=C(C)CC(=O)C(F)(F)F (centres undefined)
inactive: dose: 100.0 mg/kg/injection, schedule: Q01DX001 (ip), vehicle: other 101 % of control | dose: 100.0 mg/kg/injection, schedule: Q04DX003 (ip), vehicle: other 115 % of control | dose: 200.0 mg/kg/injection, schedule: Q01DX001 (ip), vehicle: other 86 % of control | dose: 200.0 mg/kg/injection, schedule: Q04DX003 (ip), vehicle: other 105 % of control | dose: 400.0 mg/kg/injection, schedule: Q01DX001 (ip), vehicle: other 97 % of control | dose: 400.0 mg/kg/injection, schedule: Q04DX003 (ip), vehicle: other 111 % of control

O=C1C(O)=C(O)C(=O)C(O)=C1O
inactive: [2] 103 % of control | [4] 100 % of control | [6] 105 % of control

O=C(CC(O)(C(F)(F)F)C(F)(F)F)c1ccc(Cl)c([N+](=O)[O-])c1
inactive: dose: 75.0 mg/kg/injection, schedule: Q01DX009 (ip), vehicle: Klucel (hydroxypropylcellulose) (HPC) 102 % of control | dose: 150.0 mg/kg/injection, schedule: Q01DX009 (ip), vehicle: Klucel (hydroxypropylcellulose) (HPC) 100 % of control

Cc1c(Cl)c(CCl)c(Cl)c(CCl)c1Cl
inactive: dose: 100.0 mg/kg/injection, schedule: Q01DX001 (ip), vehicle: Klucel (hydroxypropylcellulose) (HPC) 94 % of control | dose: 200.0 mg/kg/injection, schedule: Q01DX001 (ip), vehicle: Klucel (hydroxypropylcellulose) (HPC) 92 % of control | dose: 400.0 mg/kg/injection, schedule: Q01DX001 (ip), vehicle: Klucel (hydroxypropylcellulose) (HPC) 89 % of control

COc1cc([N+](=O)[O-])ccc1NC(=O)c1c(Br)c(Br)c(Br)c(Br)c1C(=O)O
inactive: [16] 101 % of control | [17] 106 % of control | dose: 400.0 mg/kg/injection, schedule: Q01DX009 (ip), vehicle: Klucel (hydroxypropylcellulose) (HPC) 106 % of control

O=C(OCCN1CCCCC1)C(O)C1CCCCC1 (centres undefined)
inactive: [14] 101 % of control | [15] 103 % of control

COc1cc(O)c2ccccc2c1OC(C)=O
inactive: [18] 101 % of control | [16] 90 % of control | [17] 93 % of control

CCCC[P+](CCCC)(CCCC)Cc1ccc(C(=O)Oc2ccc([N+](=O)[O-])cc2)cc1
inactive: dose: 25.0 mg/kg/injection, schedule: Q01DX009 (ip), vehicle: Klucel (hydroxypropylcellulose) (HPC) 98 % of control | dose: 25.0 mg/kg/injection, schedule: Q04DX003 (ip), vehicle: Klucel (hydroxypropylcellulose) (HPC) 91 % of control | [18] 89 % of control | dose: 50.0 mg/kg/injection, schedule: Q04DX003 (ip), vehicle: Klucel (hydroxypropylcellulose) (HPC) 93 % of control | [16] 102 % of control | [10] 96 % of control and 88 % of control

C/C(=C(/CCO)SCCC(=O)c1ccccc1)N(C=O)Cc1cnc(C)nc1N
inactive: [14] 101 % of control | [15] 93 % of control | dose: 400.0 mg/kg/injection, schedule: Q04DX003 (ip), vehicle: saline 93 % of control

Cc1cc(NC(=O)Nc2ccc(Cl)cc2Cl)no1
inactive: dose: 12.5 mg/kg/injection, schedule: Q01DX009 (ip), vehicle: saline with Tween-80 95 % of control | dose: 25.0 mg/kg/injection, schedule: Q01DX009 (ip), vehicle: saline with Tween-80 91 % of control | [7] 91 % of control and 92 % of control | [8] 95 % of control | [9] 95 % of control

C=Nc1ccc(Cl)cc1
inactive: [13] 98 % of control | [1] 93 % of control | [3] 98 % of control
